These results are taken from ChEMBL document CHEMBL4840347, “Design, synthesis, and biological evaluation of novel somatostatin receptor subtype-2 agonists: Optimization for potency and risk mitigation of hERG and phospholipidosis” (Bioorg Med Chem, 2021).

Series [1] in a line: Cmax in rat at 3 mg/kg, po. The series is classed as ADME, organism-based. Further details: route oral, dose 3 mg/kg. Conditions: in vivo.
Series [2] is described as follows: Tmax in rat at 3 mg/kg, po. In kind it is ADME, organism-based. Conditions: in vivo.
A short description of series [3]: AUC (0 to 24 hrs) in rat at 1 mg/kg, iv. Further details: time < 24 hr, route intravenous, dose 1 mg/kg. In kind it is ADME, organism-based. To be noted: in vivo.
A short description of series [4]: AUC (0 to 24 hrs) in rat at 3 mg/kg, po. In kind it is ADME, organism-based. Also on record: time < 24 hr, route oral, dose 3 mg/kg. To be noted: in vivo.
Series [5] in a line: Half life in rat at 1 mg/kg, iv. To be noted: in vivo. The series is classed as ADME, organism-based.
Series [6] in a line: Half life in rat at 3 mg/kg, po. The series is classed as ADME, organism-based. Conditions: in vivo.
The nature of series [7]: Total clearance in rat at 1 mg/kg, iv. In kind it is ADME, organism-based. To be noted: in vivo.
The nature of series [8]: Volume of distribution in rat at 1 mg/kg, iv. The series is classed as ADME, organism-based. Conditions: in vivo, read-out: Vdss.
Series [9] is described as follows: Oral bioavailability in rat at 3 mg/kg. The series is classed as ADME, organism-based. To be noted: in vivo.
The nature of series [10]: Half life in rat liver microsomes measured up to 60 mins in presence of NADPH by LC-MS/MS analysis. In kind it is ADME, Microsome. On the technique in general: Liver microsomes are a subcellular fraction often used to study metabolism.
The nature of series [11]: Permeability of compound by PAMPA assay. In kind it is ADME. To be noted: read-out: permeability.
Series [12] in a line: Tmax in rat at 10 mg/kg, po. In kind it is ADME, organism-based. Conditions: in vivo.
The nature of series [13]: AUC (0 to 24 hrs) in rat at 10 mg/kg, po. In kind it is ADME, organism-based. Further details: time < 24 hr, route oral, dose 10 mg/kg. To be noted: in vivo.
A short description of series [14]: Half life in rat at 10 mg/kg, po. The series is classed as ADME, organism-based. Conditions: in vivo.
Series [15] can be described thus: Oral bioavailability in rat at 10 mg/kg. In kind it is ADME, organism-based. Conditions: in vivo.

Where only a bound is given, the exact number is not on record here.

A word on the Cmax: it is the peak of the concentration-time curve. For orientation: Tmax means the time from dosing to the highest level. For orientation: AUC(0-t) means exposure summed from dosing to a finite time, without extrapolation to infinity. The half-life is the time in which the quantity being followed falls by half. What is called clearance is a measure of how efficiently the substance is removed, as volume per time. Read a low clearance as a low capacity for elimination. For orientation: bioavailability means dose-corrected exposure relative to a reference, in per cent. Take `Cc1cc(C(=O)Nc2cncc(-c3cc(Cl)cc(Cl)c3)c2N2CCC(N)CC2)n(C)n1`: the Cmax in series [1] amounted to 32.1 ng/mL. Besides, the Tmax in series [2] stood at 2.3 h. The values for the AUC(0-t) at 24 h in [3] and in [4] were 264 ng·h/mL and 271 ng·h/mL, respectively. Also, the half-life was 6.1 h in series [5], 5.6 h in [6] and over 3.33 h in series [10]. The molecule further registered a clearance in series [7] of 60.7 mL/min/kg. Moreover, in series [8], the Vd amounted to 23.2 L/kg. The molecule further yielded a bioavailability in series [9] of 35.5%. Besides, in series [11], the Papp amounted to 41 ×10⁻⁶ cm/s.

In general, AUC refers to the area under the concentration-time curve, a measure of exposure. As to `COc1cc(OC)cc(-c2cncc(-c3nc4cc(C)ccc4[nH]3)c2N2CCC(N)CC2)c1`, the peak level in [1] (Cmax) was 56.6 ng/mL. Besides, the Tmax in [2] and in series [12] was 0.5 h throughout. For the same molecule, the AUC in series [3] (24 h) came out at 686 ng·h/mL; in series [13], 291 ng·h/mL. Besides, the AUC(0-t) at 24 h in [4] is 291 ng·h/mL. The half-life was 5.8 h in series [5], 6.5 h in [6], over 3.33 h in series [10] and 6.5 h in series [14]. The molecule further returned a clearance in series [7] of 25.1 mL/min/kg. Further, the Vd in series [8] came to 8.23 L/kg. Also, the Papp in [11] was 0.71 ×10⁻⁶ cm/s. Besides, the F in series [15] came to 42%.
